Legend:
[1] = system: S. typhimurium; experiment: Bacterial invasion assay in HEK293 cells; assay type: cell-based, Salmonella enterica serovar Typhimurium; details: MDP-LD stimulated, two hour infection at MOI=10, compared to untransfected HEK293
Method: (§1) FIGS. 19A and 19B are graphs showing that GRIM-19 acts downstream of NOD2 and is required from NF-κB activation. […] NF-κB activity was determined in the absence or presence of 1 μg of MDP-LD. grim-19 mRNA level was measured by RT-PCR using specific primers. […] After a two hour period of infection with S. typhimurium at MOI=10, invasive bacteria were quantified as described above. * p<0.05
Invasion assays were performed with Salmonella enterica serovar Typhimurium or Escherichia coli TOP10 (Invitrogen). Cell monolayers were seeded in 24-well tissue culture plate with 10^5 cells/well and incubated for 20 hours. Monolayers were then infected in 1 ml of cell culture medium without antibiotic and with heat-inactivated FCS at a multiplicity of infection (MOI) of 10 bacteria per epithelial cell. After a two hour incubation period at 37° C., the monolayers were washed two times with PBS. Fresh cell culture medium containing 100 μg/ml of gentamicin (Sigma) was then added for one hour to kill any extracellular bacteria. The epithelial cells were then lysed with 1% Triton X-100 in deionized water. Samples of cell lysates were diluted and plated onto Luria-Bertani agar plates to determine the number of colony forming units (cfu), which corresponds to the number of intracellular bacteria.

[2] = system: Caco-2 cells; details: Caco-2 cells transfected (overexpression), adenylate kinase release
[3] = system: grim-19 mRNA in Caco-2 cells; experiment: Real time RT-PCR of grim-19 mRNA in Caco-2 cells; assay type: cell-based, human; details: for grim-19 mRNA levels: Caco-2 cells harboring plasmid encoding siRNA
Method: Total RNA of IEC lines were extracted using Trizol (INVITROGEN) according to the manufacturer's instructions. For reverse transcription, 2 μg of total RNA was transcribed with RT PCR reagents provided in the SUPERSCRIPT FIRST-STRAND SYNTHESIS SYSTEM (INVITROGEN). Real time RT-PCR was performed in an ABI Prism 7000 Sequence Detector using SYBR Green JumpStart™ detection system. Briefly, 50 ng of the reversed transcribed cDNA were used for each PCR reaction with 200 nM of forward and reverse primers. Primers used for PCR had the following sequences: Forward 5-[…]-3, Reverse 5-[…]-3 (GRIM-19, 194 bp); Forward 5-[…]-3, Feverse 5-[…]-3 (glyceraldehyde-3-phosphate dehydrogenase [GAPDH], 440 bp). The following PCR program was used: 50° C. for 2 minutes, then 95° C. for 10 minutes followed by 40 cycles of 95° C. for 15 seconds, 60° C. for 15 seconds and 72° C. for 15 seconds. The threshold cycle (CT) values were obtained for the reactions reflecting quantity of the template in the sample. GRIM-19 Delta CT (ΔCT) was calculated by subtracting the GAPDH CT value from the GRIM-19 CT value and thus, represented the relative quantity of the target molecule after normalizing with the internal standard GAPDH. The GRIM-19 ΔCT values of Caco-2 cells infected with Salmonella, or transfected with pcDNA4/HisMAX-GRIM 19 were expressed as the percentage of GRIM-19 ΔCT values of control Caco-2 cells.

[4] = system: NOD2 mediated NF-κB activation; experiment: NF-κB activation assay (luciferase reporter) in HEK293 cells; assay type: cell-based, human; details: HEK293 transfected with NOD2, 1 μg MDP-LD stimulation; relative to HEK293 transfected only with NOD2 or with pSUPER control vector
Method: as §1
HEK293 cells were transfected overnight with 1 ng of NOD2, 10 ng of grim-19 siRNA plus 1 ng of pIV luciferase reporter plasmid and renilla plasmid. At the same time, 1 μg of MDP-LD (Sigma) was added. After twenty-four hours, luciferase activity was measured using the Dual-Luciferase Reporter Assay System (Promega, Madison, Wis.) according to the manufacturer's instructions and normalized relative to renilla activity.

[5] = system: grim-19 mRNA in HEK293 cells; experiment: RT-PCR of grim-19 mRNA in HEK293 cells; assay type: cell-based, human; details: HEK293 cells transfected with NOD2 and siRNA
Method: as §1
Total RNA of IEC lines were extracted using Trizol (INVITROGEN) according to the manufacturer's instructions. For reverse transcription, 2 μg of total RNA was transcribed with RT PCR reagents provided in the SUPERSCRIPT FIRST-STRAND SYNTHESIS SYSTEM (INVITROGEN). Real time RT-PCR was performed in an ABI Prism 7000 Sequence Detector using SYBR Green JumpStart™ detection system. […] The threshold cycle (CT) values were obtained for the reactions reflecting quantity of the template in the sample. GRIM-19 Delta CT (ΔCT) was calculated by subtracting the GAPDH CT value from the GRIM-19 CT value and thus, represented the relative quantity of the target molecule after normalizing with the internal standard GAPDH. The GRIM-19 ΔCT values of Caco-2 cells infected with Salmonella, or transfected with pcDNA4/HisMAX-GRIM 19 were expressed as the percentage of GRIM-19 ΔCT values of control Caco-2 cells.

[6] = system: S. typhimurium; details: for percentage of intracellular bacteria: transfected Caco-2 cells, two hour infection at MOI=10, one hour gentamicin, relative to untransfected Caco-2 cells = 100%, mean ±SEM
[7] = system: NOD2 mRNA expression in SW480 cells; experiment: Northern blot analysis of NOD2 mRNA expression in SW480 cells; assay type: cell-based, human
Method: FIGS. 8A-8D are photographs of Northern blots showing the effect of cytokines on Nod2 mRNA expression in SW480 cells. FIG. 8A is a Northern blot analysis of Nod2 mRNA expression in SW480 cells treated with 10 ng/ml of IFNγ, TNFα, IL-1β, IL-4 and TGFβ for six hours. As a positive control for CARD15/NOD2, human PBMC was used. […] In each of FIGS. 8A-8C, expression of Nod2 is shown relative to GAPDH expression.
Regulation of NOD2 expression had not been previously characterized. In order to better understand how NOD2 expression might vary in the context of mucosal inflammation, the effects of cytokines on epithelial NOD2 expression were studied using the SW480 cell line.

[8] = system: NOD1 mRNA expression in SW480 cells; experiment: Northern blot analysis of NOD1 mRNA expression in SW480 cells treated with cytokines; assay type: cell-based, human; details: 10 ng/ml cytokine for six hours, Northern blot relative to GAPDH
Method: FIGS. 3A, B, C, D, E, and F are photographs showing Northern blots. […] Cells were treated with IFNγ for six hours. […] Cells were treated with 100 ng/ml IFNγ.
Regulation of NOD1 expression had not been described previously. […] The effect of IFNγ on NOD1 mRNA expression is time and concentration dependent manner as assessed by Northern blot analysis (FIG. 3C-3E).

[9] = system: NOD2 protein in SW480 cells; experiment: Western blot of NOD2 protein in SW480 cells; assay type: cell-based, human; details: TNFα stimulation, time-dependent
Source text: FIGS. 9A-9D depict NOD2 protein and its expression in SW480 cells. FIG. 9A is a schematic diagram showing the location of polypeptide sequences of NOD2 for immunization. FIGS. 9B, 9C, and 9D are photographs of Western blots. […] Untransfected COS7 cells were used as a negative control. […] Transiently transfected COS7 cells were immunoprecipitated with affinity purified (a.p.) anti-NOD2 antiserum (HM2559 a.p.), then immunoblotted with affinity purified biotinylated anti-NOD2 antiserum (b-HM2563 a.p.). […] As a positive control for NOD2 protein, lysates of COS7 cells transfected with pCMV FLAG-NOD2 was used.
Previous reported efforts had not been successful in detecting active NOD2 protein in vitro or in vivo. To detect the expression of active CARD15/NOD2 protein, anti-NOD2 sera (FIG. 9A) were generated. […] Increased production of TNFα has been noted in the mucosa of patients with Crohn's disease.

[10] = system: NOD1 protein in SW480 cells; experiment: Immunoprecipitation / Western blot of NOD1 protein in SW480 cells; assay type: cell-based, human; details: 100 ng/ml IFNγ, 6-48 hours, immunoprecipitation and immunoblot
Source text: FIGS. 4A and 4B are photographs of Western blots. […] Anti-HA monoclonal antibody and biotinylated anti-CARD4/NOD1 antiserum (HM3847) detected NOD1 protein in COS7 cells transiently transfected with pCl CARD4-HA. […] Lysates from COS7 cells transiently transfected with pCl CARD4-HA were used as positive control.
To investigate the expression of NOD1 protein, anti-NOD1 sera were generated. The specificity and the sensitivity were confirmed using lysates from COS7 cells transiently transfected with the HA tagged CARD4 expression plasmid, pCl CARD4-HA (FIG. 4A). Consistent with the regulation of mRNA expression, NOD1 protein was also augmented in SW480 cells by IFNγ stimulation (FIG. 4B).

[11] = system: human NOD1 promoter; experiment: NOD1 promoter luciferase reporter assay in SW480 cells; assay type: cell-based; details: SW480 cells transfected with pGL-2128, 100 ng/ml IFNγ for sixteen hours
Method: FIGS. 5A-5D are panels showing that IFNγ activated the human NOD1 promoter. FIG. 5A is a schematic diagram depicting the CARD4/NOD1 gene. Three IRF-1 binding motifs (IRF-1A, IRF-1B, and IRF-1C) are indicated as black boxes (▪). FIG. 5B is a schematic diagram depicting pGL Nod 1-luciferase deletion mutants. FIGS. 5C and 5D are graphs showing luciferase activity in SW480 cells were transiently transfected with 500 ng/well of the indicated expression plasmid. Ten hours after transfection, cells were cultured for a further sixteen hours with 100 ng/ml of IFNγ and then luciferase activity was measured. Black bars indicate the presence of IFNγ. White bars indicate the control conditions.
To identify the transcriptional regulation of NOD1, a series of luciferase reporter vectors was constructed, containing up to 2,128 base pairs corresponding to the DNA sequence upstream of base 1 and extending 21 base pairs into the first exon of NOD1 (FIGS. 5A and 5B). Luciferase activity in SW480 cells transfected with a vector containing the entire 2,128 base pairs upstream DNA (pGL-2128) was 125±16 fold higher than that obtained with the empty pGL3 basic vector.

NOD2: NOD2 protein expressed from Flag-tagged mammalian expression vector pCMVFlag-NOD2
invasive ability of S. typhimurium [1]: decreased
cell death [2]: did not induce cell death

grim-19 siRNA-1: siRNA expressed from pSUPER vector, 19-residue sequence 1-gtgtgggatactgcgagta specific to human grim-19 cDNA (guide GTGTGGGATACTGCGAGTA; expressed from pSUPER vector)
grim-19 mRNA levels [3]: significantly decreased
NF-κB activation [4]: 50%
grim-19 mRNA level [5]: significantly decreased
invasive ability of S. typhimurium [1]: reversed
invasive ability of S. typhimurium in stimulated Caco-2 cells ([6]; Caco-2 cells stimulated with RA and IFN-α, compared with non-stimulated cells): restored
percentage of intracellular bacteria [6]: 162.0%±43.8%

C[C@@H]1C[C@@H]([C@H](O)CC2CC(=O)NC(=O)C2)C(=O)[C@@H](C)C1 [Cycloheximide]
second peak of NOD2 mRNA expression (at twenty-four hours) ([7]; SW480 cells stimulated with 10 ng/ml TNFα): inhibited

TGFβ
NOD1 mRNA expression [8]: did not affect

TNFα
NOD2 mRNA expression ([7]; SW480 cells, TNFα, concentration and time-dependent): up-regulated
NOD2 protein [9]: upregulated

IL-β: cytokine as printed in b202; figure legend b47 names IL-1β
NOD1 mRNA expression [8]: did not affect

grim-19 control siRNA: grim-19 control siRNA (sequence 2, atcgaggacttcgaggctc), which did not affect grim-19 mRNA (guide ATCGAGGACTTCGAGGCTC; chemistry not given here) [reference compound]
grim-19 mRNA levels [3]: did not affect
NF-κB activation [4]: no significant effect
grim-19 mRNA level [5]: did not knockdown
percentage of intracellular bacteria [6]: not observed

IFN-α
grim-19 mRNA expression ([3]; Caco-2 cells stimulated with RA, IFN-α or both, real time RT-PCR): did not show increased GRIM-19 expression
percentage of intracellular bacteria / invasive ability of S. typhimurium ([6]; Caco-2 cells stimulated with RA, IFN-α or both, two hour incubation): remained the same

B1: IL-4: cytokine added to SW480 cells (protein, UniProt P05112 25-153, looked up)
Interleukin-4: HKCDITLQEIIKTLNSLTEQKTLCTELTVTDIFAASKNTTEKETFCRAATVLRQFYSHHEKDTRCLGATAQQFHRHKQLIRFLKRLDRNLWGLAGLNSCPVKEANQSTLENFLERLKTIMREKYSKCSS
NOD1 mRNA expression [8]: did not affect

B2: IFNγ: cytokine interferon gamma added to SW480 cells (protein, UniProt P01579 24-161, looked up)
Interferon gamma: QDPYVKEAENLKKYFNAGHSDVADNGTLFLGILKNWKEESDRKIMQSQIVSFYFKLFKNFKDDQSIQKSVETIKEDMNVKFFNSNKKKRDDFEKLTNYSVTDLNVQRKAIHELIQVMAELSPAAKTGKRKRSQMLFRG
NOD1 mRNA expression [8]: augmented
NOD1 protein [10]: augmented
increase of luciferase activity [11]: 80%

B3: TNFβ: cytokine as printed in b202; figure legend b47 names TNFα (protein, UniProt P01374 35-205, looked up)
Lymphotoxin-alpha: LPGVGLTPSAAQTARQHPKMHLAHSTLKPAAHLIGDPSKQNSLLWRANTDRAFLQDGFSLSNNSLLVPTSGIYFVYSQVVFSGKAYSPKATSSPLYLAHEVQLFSSQYPFHVPLLSSQKMVYPGLQEPWLHSMYHGAAFQLTQGDQLSTHTDGIPHLVLSPSTVFFGAFAL
NOD1 mRNA expression [8]: did not affect
